In US20210369680A1, “METHODS OF TREATING DISEASES AND DISORDERS RESULTING FROM BETA CORONAVIRUS INFECTION” (T3D Therapeutics, Inc., priority 2020, published 2021):

Test: Fasted plasma metabolomics, clinical study
Assay type: in vivo, human
Experimental: Plasma Metabolomic Data from Clinical Study with Compound of Example 11
Fasted plasma metabolomics biomarkers were examined seeking evidence of systemic and brain pharmacological effects of Compound from Example 11. Over 800 chemically defined metabolites were examined for each dose group and a ratio EOT/BL) was calculated with an associated p value. Four dose groups were tested, 3, 10 30 and 90 mg. In general, the 30 and 90 mg dose groups had the largest impact on the metabolomics profile, each with 120 metabolites with p<0.05, while the 3 and 10 mg groups had smaller effects (40 and 61 with p<0.05 respectively). The metabolites were split into about 60 families. […] BCAAs are positively correlated with insulin resistance and diabetes. […] Some of these metabolites, such as isovaleryl and isobutyryl carnitine are part of a principal component shown to be positively associated with insulin resistance. The numbers in Table 7 are ratios of the dose group averages end of treatment (EOT) to baseline (BL). A green box indicates a statistically significant (p<0.05) decrease in metabolite. The light green indicates the p value is between 0.05 and 0.1. Statistical comparisons between doses and visits were conducted using Two-Way Repeated Measure ANOVA. Reference is made to Newgard CB, 2017. Metabolomics and Metabolic Disease, Where Do We Stand? Cell Metabolism 25: 43-56, which is incorporated by reference with regard to the example.

In the case of `CCc1oc(-c2ccc(OC)cc2)nc1CCOc1ccc2c(c1)CC[C@H]2CC(=O)[O-].[Na+]` [Example 11, Sodium (S)-2-(5-(2-(5-ethyl-2-(4-methoxyphenyl)oxazol-4-yl)ethoxy)-2,3-dihydro-1H-inden-1-yl)acetate], the “2-methylbutyrylcarnitine (C5), ratio EOT/BL” value (3 mg) is reported as 0.99, the “3-hydroxybutyrlcarnite, ratio EOT/BL” value (3 mg) is reported as 1.2 and the “Adrenoylcarnitine (C22:4)*, ratio EOT/BL” value (3 mg) is reported as 1.41. The “Arachidonoylcarnitine (C20:4), ratio EOT/BL” value (3 mg) was 1.34, the “Arachidoylcarnitine (C20)*, ratio EOT/BL” value (3 mg) was 1.11 and the “Ceramide (d18:2/24:1, d18:1/24:2), ratio EOT/BL” value (3 mg) was 1.08. The “Dihomo-linoleoylcarnitine (C20:2)*, ratio EOT/BL” value (3 mg) was 1.24, the “Docosapentaenoylcarnitine (C22:5n3)*, ratio EOT/BL” value (3 mg) was 1.39 and the “Eicosenoylcarnitine (C20:1), ratio EOT/BL” value (3 mg) was 1.22. The “Linolenoylcarnitine (C18:3)*, ratio EOT/BL” value (3 mg) was 1.17, the “Linoleoylcarnitine (C18:2)*, ratio EOT/BL” value (3 mg) was 1.22 and the “Margaroylcarnitine*, ratio EOT/BL” value (3 mg) was 1.03. For the same molecule, the “Myristoycarnitine (C14), ratio EOT/BL” value (3 mg) was 1.32, the “N-acetylleucine, ratio EOT/BL” value (3 mg) was 0.98 and the “N-palmitoyl-sphingosince (d18:1/16:0), ratio EOT/BL” value (3 mg) was 1.06. The “N-stearoyl-sphinogosince (d18:1/18:0), ratio EOT/BL” value (3 mg) was 1.05, the “Oleoylcarnitine (C18:1), ratio EOT/BL” value (3 mg) was 1.34 and the “Palmitoleoylcarnitine (C16:1)*, ratio EOT/BL” value (3 mg) was 1.44. For the same molecule, the “Palmitoylcaritine (C16), ratio EOT/BL” value (3 mg) was 1.25, the “Stearoylcarnitine (C18), ratio EOT/BL” value (3 mg) was 1.11 and the “acetylcarnitine (C2), ratio EOT/BL” value (3 mg) was 1.14. The “ceramide (d16:1/24:1, d18:1/22:1), ratio EOT/BL” value (3 mg) was 1.13, the “ceramide (d18:1/14:0, d16:1/16:0), ratio EOT/BL” value (3 mg) was 1.1 and the “ceramide (d18:1/17:0, d17:1/18:0), ratio EOT/BL” value (3 mg) was 1.03. For the same molecule, the “ceramide (d18:1/20:0, d16:1/22:0 d20:1/18:0), ratio EOT/BL” value (3 mg) was 1.12, the “isobutyrylcarnitine (C4), ratio EOT/BL” value (3 mg) was 0.95 and the “isoleucine, ratio EOT/BL” value (3 mg) was 0.93. The “isovalerylcarnitine (C5), ratio EOT/BL” value (3 mg) was 1.11, the “laurylcarnitine (C12), ratio EOT/BL” value (3 mg) was 1.4 and the “leucine, ratio EOT/BL” value (3 mg) was 0.95. For the same molecule, the “number of metabolites with p<0.05” value (3 mg) was 40, the “octanoylcarnitine (C8), ratio EOT/BL” value (3 mg) was 1.33 and the “valine, ratio EOT/BL” value (3 mg) was 0.93. For the same molecule, the “2-methylbutyrylcarnitine (C5), ratio EOT/BL” value (10 mg) was 1.02, the “3-hydroxybutyrlcarnite, ratio EOT/BL” value (10 mg) was 1.19 and the “Adrenoylcarnitine (C22:4)*, ratio EOT/BL” value (10 mg) was 1.23. For the same molecule, the “Arachidonoylcarnitine (C20:4), ratio EOT/BL” value (10 mg) was 1.23, the “Arachidoylcarnitine (C20)*, ratio EOT/BL” value (10 mg) was 1.09 and the “Ceramide (d18:2/24:1, d18:1/24:2), ratio EOT/BL” value (10 mg) was 0.96. The “Dihomo-linoleoylcarnitine (C20:2)*, ratio EOT/BL” value (10 mg) was 1.24, the “Docosapentaenoylcarnitine (C22:5n3)*, ratio EOT/BL” value (10 mg) was 1.18 and the “Eicosenoylcarnitine (C20:1), ratio EOT/BL” value (10 mg) was 1.03. The “Linolenoylcarnitine (C18:3)*, ratio EOT/BL” value (10 mg) was 1.19, the “Linoleoylcarnitine (C18:2)*, ratio EOT/BL” value (10 mg) was 1.21 and the “Margaroylcarnitine*, ratio EOT/BL” value (10 mg) was 1.15. For the same molecule, the “Myristoycarnitine (C14), ratio EOT/BL” value (10 mg) was 1.13, the “N-acetylleucine, ratio EOT/BL” value (10 mg) was 1 and the “N-palmitoyl-sphingosince (d18:1/16:0), ratio EOT/BL” value (10 mg) was 1.02. For the same molecule, the “N-stearoyl-sphinogosince (d18:1/18:0), ratio EOT/BL” value (10 mg) was 0.98, the “Oleoylcarnitine (C18:1), ratio EOT/BL” value (10 mg) was 1.1 and the “Palmitoleoylcarnitine (C16:1)*, ratio EOT/BL” value (10 mg) was 1.11. The “Palmitoylcaritine (C16), ratio EOT/BL” value (10 mg) was 1.12, the “Stearoylcarnitine (C18), ratio EOT/BL” value (10 mg) was 1.19 and the “acetylcarnitine (C2), ratio EOT/BL” value (10 mg) was 1.03. For the same molecule, the “ceramide (d16:1/24:1, d18:1/22:1), ratio EOT/BL” value (10 mg) was “.095”, the “ceramide (d18:1/14:0, d16:1/16:0), ratio EOT/BL” value (10 mg) was 1.05 and the “ceramide (d18:1/17:0, d17:1/18:0), ratio EOT/BL” value (10 mg) was 1.12. The “ceramide (d18:1/20:0, d16:1/22:0 d20:1/18:0), ratio EOT/BL” value (10 mg) was 1.05, the “isobutyrylcarnitine (C4), ratio EOT/BL” value (10 mg) was 1.01 and the “isoleucine, ratio EOT/BL” value (10 mg) was 0.94. The “isovalerylcarnitine (C5), ratio EOT/BL” value (10 mg) was 0.97, the “laurylcarnitine (C12), ratio EOT/BL” value (10 mg) was 1.17 and the “leucine, ratio EOT/BL” value (10 mg) was 0.98. For the same molecule, the “number of metabolites with p<0.05” value (10 mg) was 61, the “octanoylcarnitine (C8), ratio EOT/BL” value (10 mg) was 1.21 and the “valine, ratio EOT/BL” value (10 mg) was 1.06. For the same molecule, the “2-methylbutyrylcarnitine (C5), ratio EOT/BL” value (30 mg) was 0.96, the “3-hydroxybutyrlcarnite, ratio EOT/BL” value (30 mg) was 1.26 and the “Adrenoylcarnitine (C22:4)*, ratio EOT/BL” value (30 mg) was 1.44. For the same molecule, the “Arachidonoylcarnitine (C20:4), ratio EOT/BL” value (30 mg) was 1.34, the “Arachidoylcarnitine (C20)*, ratio EOT/BL” value (30 mg) was 1.16 and the “Ceramide (d18:2/24:1, d18:1/24:2), ratio EOT/BL” value (30 mg) was 0.92. The “Dihomo-linoleoylcarnitine (C20:2)*, ratio EOT/BL” value (30 mg) was 1.47, the “Docosapentaenoylcarnitine (C22:5n3)*, ratio EOT/BL” value (30 mg) was 1.65 and the “Eicosenoylcarnitine (C20:1), ratio EOT/BL” value (30 mg) was 1.43. The “Linolenoylcarnitine (C18:3)*, ratio EOT/BL” value (30 mg) was 1.35, the “Linoleoylcarnitine (C18:2)*, ratio EOT/BL” value (30 mg) was 1.37 and the “Margaroylcarnitine*, ratio EOT/BL” value (30 mg) was 1.14. The “Myristoycarnitine (C14), ratio EOT/BL” value (30 mg) was 1.29, the “N-acetylleucine, ratio EOT/BL” value (30 mg) was 0.91 and the “N-palmitoyl-sphingosince (d18:1/16:0), ratio EOT/BL” value (30 mg) was 0.89. The “N-stearoyl-sphinogosince (d18:1/18:0), ratio EOT/BL” value (30 mg) was 0.82, the “Oleoylcarnitine (C18:1), ratio EOT/BL” value (30 mg) was 1.51 and the “Palmitoleoylcarnitine (C16:1)*, ratio EOT/BL” value (30 mg) was 1.66. For the same molecule, the “Palmitoylcaritine (C16), ratio EOT/BL” value (30 mg) was 1.29, the “Stearoylcarnitine (C18), ratio EOT/BL” value (30 mg) was 1.24 and the “acetylcarnitine (C2), ratio EOT/BL” value (30 mg) was 1.19. For the same molecule, the “ceramide (d16:1/24:1, d18:1/22:1), ratio EOT/BL” value (30 mg) was 0.71, the “ceramide (d18:1/14:0, d16:1/16:0), ratio EOT/BL” value (30 mg) was 0.86 and the “ceramide (d18:1/17:0, d17:1/18:0), ratio EOT/BL” value (30 mg) was 0.91. For the same molecule, the “ceramide (d18:1/20:0, d16:1/22:0 d20:1/18:0), ratio EOT/BL” value (30 mg) was 0.83, the “isobutyrylcarnitine (C4), ratio EOT/BL” value (30 mg) was 0.77 and the “isoleucine, ratio EOT/BL” value (30 mg) was 0.96. The “isovalerylcarnitine (C5), ratio EOT/BL” value (30 mg) was 0.99, the “laurylcarnitine (C12), ratio EOT/BL” value (30 mg) was 1.35 and the “leucine, ratio EOT/BL” value (30 mg) was 1. For the same molecule, the “number of metabolites with p<0.05” value (30 mg) was 120, the “octanoylcarnitine (C8), ratio EOT/BL” value (30 mg) was 1.44 and the “valine, ratio EOT/BL” value (30 mg) was 0.96. For the same molecule, the “2-methylbutyrylcarnitine (C5), ratio EOT/BL” value (90 mg) was 0.81, the “3-hydroxybutyrlcarnite, ratio EOT/BL” value (90 mg) was 1.53 and the “Adrenoylcarnitine (C22:4)*, ratio EOT/BL” value (90 mg) was 1.54. The “Arachidonoylcarnitine (C20:4), ratio EOT/BL” value (90 mg) was 1.31, the “Arachidoylcarnitine (C20)*, ratio EOT/BL” value (90 mg) was 1.17 and the “Ceramide (d18:2/24:1, d18:1/24:2), ratio EOT/BL” value (90 mg) was 0.99. The “Dihomo-linoleoylcarnitine (C20:2)*, ratio EOT/BL” value (90 mg) was 1.54, the “Docosapentaenoylcarnitine (C22:5n3)*, ratio EOT/BL” value (90 mg) was 1.45 and the “Eicosenoylcarnitine (C20:1), ratio EOT/BL” value (90 mg) was 1.61. The “Linolenoylcarnitine (C18:3)*, ratio EOT/BL” value (90 mg) was 1.25, the “Linoleoylcarnitine (C18:2)*, ratio EOT/BL” value (90 mg) was 1.22 and the “Margaroylcarnitine*, ratio EOT/BL” value (90 mg) was 1.21. For the same molecule, the “Myristoycarnitine (C14), ratio EOT/BL” value (90 mg) was 1.56, the “N-acetylleucine, ratio EOT/BL” value (90 mg) was 0.82 and the “N-palmitoyl-sphingosince (d18:1/16:0), ratio EOT/BL” value (90 mg) was 0.89. The “N-stearoyl-sphinogosince (d18:1/18:0), ratio EOT/BL” value (90 mg) was 0.82, the “Oleoylcarnitine (C18:1), ratio EOT/BL” value (90 mg) was 1.46 and the “Palmitoleoylcarnitine (C16:1)*, ratio EOT/BL” value (90 mg) was 1.79. The “Palmitoylcaritine (C16), ratio EOT/BL” value (90 mg) was 1.31, the “Stearoylcarnitine (C18), ratio EOT/BL” value (90 mg) was 1.18 and the “acetylcarnitine (C2), ratio EOT/BL” value (90 mg) was 1.23. For the same molecule, the “ceramide (d16:1/24:1, d18:1/22:1), ratio EOT/BL” value (90 mg) was 0.84, the “ceramide (d18:1/14:0, d16:1/16:0), ratio EOT/BL” value (90 mg) was 0.77 and the “ceramide (d18:1/17:0, d17:1/18:0), ratio EOT/BL” value (90 mg) was 0.84. For the same molecule, the “ceramide (d18:1/20:0, d16:1/22:0 d20:1/18:0), ratio EOT/BL” value (90 mg) was 0.84, the “isobutyrylcarnitine (C4), ratio EOT/BL” value (90 mg) was 0.57 and the “isoleucine, ratio EOT/BL” value (90 mg) was 0.84. For the same molecule, the “isovalerylcarnitine (C5), ratio EOT/BL” value (90 mg) was 0.68, the “laurylcarnitine (C12), ratio EOT/BL” value (90 mg) was 1.56 and the “leucine, ratio EOT/BL” value (90 mg) was 0.8. For the same molecule, the “number of metabolites with p<0.05” value (90 mg) was 120, the “octanoylcarnitine (C8), ratio EOT/BL” value (90 mg) was 1.58 and the “valine, ratio EOT/BL” value (90 mg) was 0.79.
